Values of other authors, collected in article PMC4506092, “Utilizing Chemical Genomics to Identify Cytochrome b as a Novel Drug Target for Chagas Disease” (PLoS Pathogens, 2015).

System: T. cruzi infection
Conditions: cited from earlier work; for Parasitological cure rates: Chagas disease patients, clinical testing

Row | SMILES | Parasitological cure rates | Patients with failure to cure infection (treated Chagas patients) | Patients with recrudescence of infection (Chagas patients, 60-day treatment, determined by PCR)
1 | C[C@@H](c1nc(-c2ccc(C#N)cc2)cs1)[C@@](Cn1cncn1)(OCOP(=O)(O)O)c1ccc(F)cc1F [Compound E1224] | 20–30% | ~ 70% | –
2 | CC[C@@H]([C@H](C)O)n1ncn(-c2ccc(N3CCN(c4ccc(OC[C@@H]5CO[C@@](Cn6cncn6)(c6ccc(F)cc6F)C5)cc4)CC3)cc2)c1=O [posaconazole] | 20–30% | – | 81%
